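Results reflect a 48-hour exposure of cells in 96-well plates to compound at five concentrations. GI50 = concentration required for 50% inhibition of growth. At the TGI there is no net growth.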
Assays:
Assay in all cases: inhibition of tumour cell growth, NCI panel, 48 h
SW-620 colon = tested on: SW-620 colon
MALME-3M melanoma = tested on: MALME-3M melanoma
M14 melanoma = tested on: M14 melanoma
SN12C renal = tested on: SN12C renal
SF-268 CNS = tested on: SF-268 CNS
SR leukemia = tested on: SR leukemia
ACHN renal = tested on: ACHN renal
HOP-62 NSCLC = tested on: HOP-62 NSCLC
SNB-75 CNS = tested on: SNB-75 CNS
TK-10 renal = tested on: TK-10 renal

Row | SMILES | GI50 (SW-620 colon) [µM] | TGI (SW-620 colon) [µM] | GI50 (MALME-3M melanoma) [µM] | TGI (MALME-3M melanoma) [µM] | GI50 (M14 melanoma) [µM] | TGI (M14 melanoma) [µM] | GI50 (SN12C renal) [µM] | TGI (SN12C renal) [µM] | GI50 (SF-268 CNS) [µM] | TGI (SF-268 CNS) [µM] | GI50 (SR leukemia) [µM] | TGI (SR leukemia) [µM] | GI50 (ACHN renal) [µM] | TGI (ACHN renal) [µM] | GI50 (HOP-62 NSCLC) [µM] | TGI (HOP-62 NSCLC) [µM] | GI50 (SNB-75 CNS) [µM] | TGI (SNB-75 CNS) [µM] | GI50 (TK-10 renal) [µM] | TGI (TK-10 renal) [µM]
1 | Fc1cccc(-c2[nH]nc3nc(Nc4cccnc4)sc23)c1 | 35.6 | > 100 | 39.8 | > 100 | 11.3 | > 100 | > 100 | > 100 | > 100 | > 100 | 0.979 | > 100 | 56.6 | > 100 | > 100 | > 100 | > 100 | > 100 | 31.2 | > 100
2 | COc1cc(C)c(NC(=O)CN(C)C)cc1Nc1nc(Nc2cccc(F)c2C(N)=O)c2cc[nH]c2n1 | 0.168 | 3.49 | 1.91 | 7.47 | 1.1 | 5.98 | 3.86 | 8.23 | 1.27 | 5.47 | 0.00977 | 2.89 | 3.81 | 7.35 | 1.24 | 5.54 | 3.37 | 6.92 | 1.93 | 5.55
3 | Oc1c(CN2CCN(c3ccccc3F)CC2)cc(Br)c2cccnc12 | 0.47 | 20.2 | 1.89 | 9.46 | 0.924 | 16.5 | 0.987 | 20.5 | 0.858 | > 100 | 0.419 | 5.17 | 0.495 | 13.7 | 0.596 | 14.2 | 1.91 | > 100 | 5.45 | 29
4 | CCN1CCN(c2ccc(Nc3ncc4ccc5ncn(C(C)C)c5c4n3)nc2)CC1 | 0.0352 | 0.418 | 0.134 | 1.69 | 0.124 | 1.34 | 0.139 | 17.9 | 0.117 | 0.47 | 0.0402 | – | 0.0402 | 10.6 | 0.0923 | 3.22 | 0.14 | 0.415 | 0.0359 | 0.873
5 | Cn1c(=O)c2[nH]c(CCCCc3nc4c([nH]3)c(=O)n(C)c(=S)n4C)nc2n(C)c1=S | – | > 100 | – | > 100 | – | > 100 | – | > 100 | – | > 100 | – | > 100 | – | > 100 | – | > 100 | – | 53.1 | – | > 100
6 | O=C(C=Nc1ccccc1C(=O)[O-])c1cccs1.O=C(C=Nc1ccccc1C(=O)[O-])c1cccs1.[Zn+2] | – | > 100 | – | > 10 | – | > 100 | – | > 10 | – | 79.8 | – | > 100 | – | > 100 | – | > 100 | – | 35.3 | – | > 100
7 | Cc1ccc(NC(=O)CC2C(=O)Nc3ccccc3S2=O)c(C)c1 (stereo not drawn) | – | 67.4 | – | > 68.2 | – | 46.7 | – | 96.7 | – | 65.3 | – | 7.54 | – | 72.9 | – | 38.1 | – | 30 | – | 56.5
8 | COC1=C(OC)[C@]2(OC)c3c(O)c(OC)c4c(c3O[C@@]23O[C@@H](c2ccccc2)CC=C3C1=O)[C@@H](O)C[C@H](c1ccccc1)O4 | 0.173 | 0.334 | 0.377 | 1.33 | 0.358 | 1.17 | 0.27 | 0.893 | 0.311 | 1.35 | 0.229 | 0.612 | 0.819 | 2.06 | 1.54 | 3.2 | 0.693 | 1.98 | 0.251 | 0.718
9 | CCN(CC)CC[n+]1cc2cc(OC)c(OC)cc2c2ccc3cc4c(cc3c21)OCO4 | 0.442 | 2.36 | 1.1 | 2.5 | 0.654 | 2.31 | 0.309 | 1.21 | 0.386 | 2.71 | 0.248 | 2.12 | 1.25 | 4.07 | 0.354 | 1.93 | 0.64 | 2.56 | 1.81 | 5.28
10 | O=S(=O)(CCCCl)SCCCCl | – | 42.3 | – | > 83.8 | – | 47.3 | – | 64.1 | – | 65 | – | 60.1 | – | > 100 | – | > 100 | – | > 94 | – | > 100
11 | c1ccc2c(CNCCCCCCCCCCCCNCc3cccc4ccccc34)cccc2c1 | – | 3.2 | – | 3.66 | – | 3.29 | – | 13.6 | – | 4.84 | – | 2.69 | – | 3.7 | – | 4.56 | – | 3.21 | – | 4.74
12 | O=c1ccnc(SCc2ccc(Cl)cc2)[nH]1 | – | > 100 | – | > 100 | – | > 100 | – | > 100 | – | > 100 | – | > 100 | – | > 100 | – | > 100 | – | > 100 | – | > 100
13 | N#Cc1nn(-c2cc(=O)[nH]c3ccc(Br)cc23)c(N)c1C#N | > 100 | > 100 | > 100 | > 100 | > 100 | > 100 | > 100 | > 100 | 67 | > 100 | 74.2 | > 100 | > 100 | > 100 | > 100 | > 100 | 57.1 | > 100 | > 100 | > 100
14 | Nc1ccc(-c2ccc(-c3nc4cc(Cl)c(Cl)cc4[nH]3)cc2)cc1 | < 0.0313 | > 100 | 8.02 | > 63.4 | 0.0456 | > 37.1 | 17.9 | > 66.7 | – | 9.24 | 0.181 | 45.2 | 0.0833 | > 34.8 | 11.7 | > 50.5 | 16.3 | 55.9 | 1.63 | 37.4
15 | O=C(O)CCSC(=S)Nc1ccc([N+](=O)[O-])cc1 | – | > 100 | – | > 100 | – | > 100 | – | > 100 | – | > 100 | – | 52.9 | – | > 83 | – | > 100 | – | > 100 | – | > 100
16 | CCCCCC/C=C1\CCC(CN(C)C)C1=O (stereo not drawn) | – | 6.49 | – | 20.7 | – | 16.7 | – | 8.74 | – | 14.3 | – | 11.7 | – | 22.2 | – | 35.1 | – | 23.8 | – | 9.14

Source: PubChem BioAssay (NCI)
